*1 amine or outer side, *2 acyl side, *3 side chain or, on linkers, in order; H or OH if unused. Where a SMILES comes first, the peptide text is derived from it. Bridges are numbered along the chain shown (N, C = ends). [ ]: non-standard residue; d: D form. The star is where a group is joined. hPhe(3-Cl-4-CF3) = N[C@@H](CCc1ccc(C(F)(F)F)c(Cl)c1)C(=O)O; X31 = O=C([C@H](Cc1ccc(C(F)(F)F)cc1)N(CC1CC1)[*:1])[*:2]; NPrPhe(4-CF3) = CCCN[C@@H](Cc1ccc(C(F)(F)F)cc1)C(=O)O; NMeGly(cPent) = CN[C@H](C(=O)O)C1CCCC1; Hyp = O=C(O)[C@@H]1C[C@@H](O)CN1; NMeD = CN[C@@H](CC(=O)O)C(=O)O; NMeL = CN[C@@H](CC(C)C)C(=O)O; Morpholide = C1CN(*)CCO1; NMeA = CN[C@@H](C)C(=O)O; Ac5c = NC1(C(=O)O)CCCC1; Aze = O=C(O)[C@@H]1CCN1; Sar = CNCC(=O)O

Experiment [1] has as its target GDP-bound NRAS wild-type protein (Homo sapiens, UniProt P01111). The experiment can be described thus: Binding to NRAS by surface plasmon resonance (SPR), Single Cycle Kinetics. The settings on record: SPR; for NRAS/KRAS (ratio of KD value with respect to NRAS to KD value with respect to KRAS) / NRAS/KRAS (ratio of KD value for NRAS to KD value for KRAS): GDP-bound NRAS wild-type vs GDP-bound KRAS wild-type. (SPR reads the build-up and loss of mass on a sensor chip optically.)

For experiment [2], the target named is GDP-bound HRAS wild-type protein (Homo sapiens, UniProt P01112). Briefly: Binding to HRAS by surface plasmon resonance (SPR), Single Cycle Kinetics. The settings on record: SPR; for HRAS/KRAS (ratio of KD value with respect to HRAS to KD value with respect to KRAS) / HRAS/KRAS (ratio of KD value for HRAS to KD value for KRAS): GDP-bound HRAS wild-type vs GDP-bound KRAS wild-type.
Sequence of GDP-bound HRAS wild-type protein (P01112 whole entry): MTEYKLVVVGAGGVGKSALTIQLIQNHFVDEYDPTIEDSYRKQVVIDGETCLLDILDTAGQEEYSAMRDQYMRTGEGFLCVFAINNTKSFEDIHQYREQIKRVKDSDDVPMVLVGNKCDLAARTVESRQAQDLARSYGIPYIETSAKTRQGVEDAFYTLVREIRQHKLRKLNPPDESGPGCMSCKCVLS

Sequence of GDP-bound NRAS wild-type protein (P01111 whole entry): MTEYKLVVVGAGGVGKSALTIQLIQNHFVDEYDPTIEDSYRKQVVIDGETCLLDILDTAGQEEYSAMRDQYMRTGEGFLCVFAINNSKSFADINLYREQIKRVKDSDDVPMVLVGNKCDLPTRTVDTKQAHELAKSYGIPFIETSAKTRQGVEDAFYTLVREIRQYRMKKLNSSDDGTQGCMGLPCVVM

Consider `CC[C@H](C)[C@@H]1NC(=O)[C@H](CC(C)C)N(C)C(=O)C[C@@H](C(=O)N2CCOCC2)N(C)C(=O)[C@H](C2CCCC2)N(C)C(=O)C2(CCCC2)NC(=O)[C@@H]2CCCN2C(=O)[C@H](CCc2ccc(C(F)(F)F)c(Cl)c2)NC(=O)CN(C)C(=O)[C@H](Cc2ccc(C(F)(F)F)cc2)N(CC2CC2)C(=O)CN(C)C(=O)CN(C)C1=O` [PP0122] ([NMeL]I[Sar][Sar][X31][Sar][hPhe(3-Cl-4-CF3)]P[Ac5c][NMeGly(cPent)][NMeD]-Morpholide; lactam N-11), for which, in experiment [1], the “NRAS/KRAS (ratio of KD for GDP-bound NRAS wild-type to KD for KRAS)” value is “C (A compound having a KD ratio of 0.1 or more and less than 3 is denoted as C)”. Also, the “HRAS/KRAS (ratio of KD for GDP-bound HRAS wild-type to KD for KRAS)” value in experiment [2] was “C (A compound having a KD ratio of 0.1 or more and less than 3 is denoted as C)”.

As for `CCCN1C(=O)[C@@H]2CCN2C(=O)[C@H](C)N(C)C(=O)[C@H]([C@@H](C)CC)NC(=O)[C@H](CC(C)C)N(C)C(=O)C[C@@H](C(=O)N2CCOCC2)N(C)C(=O)[C@H](C2CCCC2)N(C)C(=O)C2(CCCC2)NC(=O)[C@@H]2C[C@@H](OC)CN2C(=O)[C@H](CCc2ccc(C(F)(F)F)c(Cl)c2)NC(=O)CN(C)C(=O)[C@@H]1Cc1ccc(C(F)(F)F)cc1` [PP0283] ([NMeL]I[NMeA][Aze][NPrPhe(4-CF3)][Sar][hPhe(3-Cl-4-CF3)][Hyp](Me)[Ac5c][NMeGly(cPent)][NMeD]-Morpholide; lactam N-11), in experiment [1], the “NRAS/KRAS (ratio of KD for GDP-bound NRAS wild-type to KD for KRAS)” value was “C (A compound having a KD ratio of 0.1 or more and less than 3 is denoted as C)”. The “HRAS/KRAS (ratio of KD for GDP-bound HRAS wild-type to KD for KRAS)” value in experiment [2] was “C (A compound having a KD ratio of 0.1 or more and less than 3 is denoted as C)”.

As for `CCO[C@@H]1C[C@H]2C(=O)NC3(CCC3)C(=O)N(C)[C@@H](C3CCCC3)C(=O)N(C)[C@H](C(=O)N(C)C)CC(=O)N(C)[C@H]3CCCCCCc4ccc(cc4)C[C@@H](C(=O)N(C)CC(=O)N[C@@H](CCc4ccc(C(F)(F)F)c(OC)c4)C(=O)N2C1)N1CC/C=C\C[C@@H](C1=O)N(C)C(=O)CN(C)C(=O)[C@H]([C@@H](C)CC)NC3=O` [PP2264], the “NRAS/KRAS (ratio of KD value with respect to NRAS to KD value with respect to KRAS)” value in experiment [1] is recorded as “AA (a compound having 20 or more is denoted as AA)”. In addition, in experiment [2], the “HRAS/KRAS (ratio of KD value with respect to HRAS to KD value with respect to KRAS)” value was “A (a compound having 10 or more and less than 20 is denoted as A)”.

Consider `CCO[C@@H]1C[C@H]2C(=O)NC3(CCC3)C(=O)N(C)[C@@H](C3CCCC3)C(=O)N(C)[C@H](C(=O)N3CCOCC3)CC(=O)N(C)[C@@H](CC(C)C)C(=O)N[C@@H]([C@@H](C)CC)C(=O)N(C)CC(=O)N(C)[C@H]3CCCCCN(C3=O)[C@@H](Cc3ccc(F)cc3)C(=O)N(C)CC(=O)N[C@@H](CCc3ccc(C(F)(F)F)c(Cl)c3)C(=O)N2C1` [PP0968], for which, in experiment [1] (KD ratio), the “NRAS/KRAS (ratio of KD value with respect to NRAS to KD value with respect to KRAS)” value is “B (a compound having 3 or more and less than 10 is denoted as B)”. Moreover, the “HRAS/KRAS (ratio of KD value with respect to HRAS to KD value with respect to KRAS)” value in experiment [2] (KD ratio) was “B (a compound having 3 or more and less than 10 is denoted as B)”.

Turning to `CCCN(C)C(=O)[C@@H]1CC(=O)N(C)[C@@H](CCOC)C(=O)N[C@@H]([C@@H](C)CC)C(=O)N(C)CC(=O)N(C)[C@H]2C/C=C\CCN(C2=O)[C@@H](Cc2ccc(C(F)(F)F)cc2)C(=O)N(C)CC(=O)N[C@@H](CCc2ccc(C(F)(F)F)c(OC)c2)C(=O)N2C[C@H](OCC)C[C@H]2C(=O)NC2(CC(C)(C)C2)C(=O)N(C)[C@@H](C2CCCC2)C(=O)N1C` [PP1975], the “NRAS/KRAS (ratio of KD value for NRAS to KD value for KRAS)” value in experiment [1] (KD ratio) is “A (a compound having 10 or more and less than 20 is denoted as A)”. Besides, in experiment [2] (KD ratio), the “HRAS/KRAS (ratio of KD value for HRAS to KD value for KRAS)” value is “A (a compound having 10 or more and less than 20 is denoted as A)”.

Consider `CCCOC[C@H]1C(=O)N[C@@H]([C@@H](C)CC)C(=O)N(C)CC(=O)N(C)[C@H]2C/C=C\CCN(C2=O)[C@@H](Cc2ccc(C)cc2)C(=O)N(C)CC(=O)N[C@@H](CCc2ccc(C(F)(F)F)c(OC)c2)C(=O)N2C[C@@H](C)C[C@H]2C(=O)NC2(CC(C)(C)C2)C(=O)N(C)[C@@H](C2CCCC2)C(=O)N(C)[C@H](C(=O)N(C)CC)CC(=O)N1C` [PP2461], for which the “NRAS/KRAS (ratio of KD value with respect to NRAS to KD value with respect to KRAS)” value in experiment [1] is “A (a compound having 10 or more and less than 20 is denoted as A)”. Moreover, the “HRAS/KRAS (ratio of KD value with respect to HRAS to KD value with respect to KRAS)” value in experiment [2] was “A (a compound having 10 or more and less than 20 is denoted as A)”.

With `CCO[C@@H]1C[C@H]2C(=O)NC3(CCC3)C(=O)N(C)[C@@H](C3CCCC3)C(=O)N(C)[C@H](C3CCC3)CC(=O)N(C)[C@@H](CC3CC3)C(=O)N[C@@H]([C@@H](C)CC)C(=O)N(C)CC(=O)N(C)[C@H]3C/C=C\CCN(C3=O)[C@@H](Cc3ccc(C(F)(F)F)cc3)C(=O)N(C)CC(=O)N[C@@H](CCc3cc(F)c(C(F)(F)F)c(F)c3)C(=O)N2C1` [PP1637], in experiment [1] (KD ratio), the “NRAS/KRAS (ratio of KD value for NRAS to KD value for KRAS)” value is “A (a compound having 10 or more and less than 20 is denoted as A)”. The “HRAS/KRAS (ratio of KD value for HRAS to KD value for KRAS)” value in experiment [2] (KD ratio) is “A (a compound having 10 or more and less than 20 is denoted as A)”.

For the origin of these results see US20250230193A1, “CYCLIC COMPOUND HAVING SELECTIVE KRAS INHIBITORY EFFECT ON HRAS AND NRAS” (CHUGAI SEIYAKU KABUSHIKI KAISHA, priority 2022, published 2025).
